This is an account of results in patent publication US12552826B2, “PRMT5 inhibitors” (Merck Sharp & Dohme LLC, priority 2018, dated 2026).

The target of experiment [1] is T1, PRMT5-MEP50 enzyme complex (Homo sapiens, UniProt O14744).
T1 construct: Full-length (FL)-PRMT5-MEP50 enzyme complex (recombinant proteins from baculovirus-transfected Sf21 cells); made in house; host or cells: baculovirus-transfected Sf21 insect cells
Briefly: PRMT5-MEP50 Enzyme Methylation Assay. The experiment is classed as biochemical. As to the method: PRMT5-MEP50 biochemical assay is a direct measurement of the methylation activity of the enzyme complex on a short peptide substrate derived from the N-terminus of H4 histone. Methylation experiment is performed with recombinant PRMT5-MEP50 protein complex. The assessment of inhibitory effect of small molecules is measured by the effectiveness of the compounds to inhibit this reaction (EC50).
In this assay, the potency (EC50) of each compound was determined from a twenty-point (1:2 serial dilution; top compound concentration of 100000 nM) titration curve using the following outlined procedure. To each well of a white ProxiPlus 384 well-plate, 100 nL of compound (1% DMSO in final assay volume of 10 μL) was dispensed, followed by the addition of 8 μL of 1× assay buffer (50 mM Bicine pH 8.0, 1 mM DTT, 0.004% Tween20, 0.01% BSA) containing 1.25 nM of Full-length (FL)-PRMT5-MEP50 enzyme complex (recombinant proteins from baculovirus-transfected Sf21 cells: FL-PRMT5; MW=[…] and FL-MEP50; MW=38614) and 1 μL of 150 μM S-(5′-Adenosyl)-L-Methionine Chloride (SAM). Plates were sealed and placed in a 37° C. humidified chamber for a 60 minutes pre-incubation with compound. Subsequently, each reaction was initiated by the addition of 1 μL 1× assay buffer containing 750 nM biotinylated H4R3 (Me1) peptide. The final reaction in each well of 10 μL consists of 1.0 nM PRMT5-MEP50, 75 nM biotinylated-peptide, and 15 μM SAM. Methylation reactions were allowed to proceed for 150 minutes in a sealed plate at 37° C. Reactions were immediately quenched by the addition of 1 μL of 5% formic acid. Plates were then frozen and shipped to SAMDITM Tech Inc. to determine the percent conversion from H4R^3 (Me1) to H4R^3 (Me2). Dose-response curves were generated by plotting percent effect (% product conversion; Y-axis) vs. Log10 compound concentrations (X-axis). EC50 values were determined by non-linear regression according to models for either sigmoidal (4 parameters) or biphasic (7 parameters) dose-response curves.

In a further experiment the target is T2, PRMT5 (Homo sapiens, UniProt O14744).
T2 construct: endogenous in cells; host or cells: MCF-7
T2 sequence (O14744 whole entry): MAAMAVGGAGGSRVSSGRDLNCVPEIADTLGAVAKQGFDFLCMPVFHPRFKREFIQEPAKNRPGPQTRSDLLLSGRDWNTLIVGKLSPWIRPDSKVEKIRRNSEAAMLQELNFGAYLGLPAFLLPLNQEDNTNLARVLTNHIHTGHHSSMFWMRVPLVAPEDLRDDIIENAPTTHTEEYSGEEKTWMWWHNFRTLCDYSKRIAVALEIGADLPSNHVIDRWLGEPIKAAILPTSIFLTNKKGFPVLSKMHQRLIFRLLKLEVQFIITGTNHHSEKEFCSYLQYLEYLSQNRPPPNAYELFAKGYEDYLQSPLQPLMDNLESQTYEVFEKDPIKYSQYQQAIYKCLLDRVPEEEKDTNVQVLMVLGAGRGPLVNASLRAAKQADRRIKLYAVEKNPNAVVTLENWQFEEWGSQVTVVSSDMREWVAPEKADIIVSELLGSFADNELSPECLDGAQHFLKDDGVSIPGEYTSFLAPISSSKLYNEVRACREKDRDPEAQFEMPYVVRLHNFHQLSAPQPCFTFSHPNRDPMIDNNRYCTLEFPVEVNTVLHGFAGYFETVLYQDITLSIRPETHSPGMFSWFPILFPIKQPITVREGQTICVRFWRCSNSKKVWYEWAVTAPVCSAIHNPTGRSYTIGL
T2 sequence (Q9BQA1 whole entry partner): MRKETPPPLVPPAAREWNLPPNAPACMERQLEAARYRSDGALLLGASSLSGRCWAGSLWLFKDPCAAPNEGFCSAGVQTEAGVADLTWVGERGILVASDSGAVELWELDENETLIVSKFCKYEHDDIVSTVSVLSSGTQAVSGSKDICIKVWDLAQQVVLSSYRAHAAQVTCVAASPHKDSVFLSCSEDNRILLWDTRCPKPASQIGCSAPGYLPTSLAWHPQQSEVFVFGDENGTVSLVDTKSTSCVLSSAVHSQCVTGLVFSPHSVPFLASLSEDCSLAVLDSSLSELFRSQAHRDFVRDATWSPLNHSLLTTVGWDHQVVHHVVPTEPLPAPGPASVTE
Briefly: PRMT5 Cell Target Engagement (TE) Assay. The experiment is classed as cell-based. To be noted: MCF-7 cells, 3 days treatment, nuclear SDMA by high content imaging. Summed up:
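MCF-7 cells seeded 5 h, then treated 3 days at 37 °C with 10-point 1:3 dilutions from 10000 nM. Fixed cells immunostained for SDMA with AF488 secondary; nuclear intensity imaged per cell and expressed as % inhibition vs DMSO. EC50 from 4-parameter robust fit.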

Setting [2] is: recombinant FL-PRMT5-MEP50, biotinylated H4R3(Me1) peptide, 15 μM SAM, single EC50 (4 parameter sigmoidal fit) or first EC50 of 7 parameter biphasic fit, read-out: Enzyme Methylation Assay (EC50 or EC50_1).
[3] abbreviates: second EC50 of 7 parameter biphasic fit, read-out: Enzyme Methylation Assay (EC50_2).

Read-outs that look alike come from different tables or passages of the source. Bounds are passed on as bounds.

T1 sequence (O14744 whole entry): as the sequence (O14744 whole entry) above
T1 sequence (Q9BQA1 whole entry partner): as the sequence (Q9BQA1 whole entry partner) above

`C[C@@]1(O)[C@@H]([C@H](O)c2ccc(Cl)c(Cl)c2)O[C@@H](n2ccc3c(N)ncnc32)[C@@H]1O` [Example 13, 7-[(5R)-5-C-(3,4-dichlorophenyl)-3-C-methyl-beta-D-ribofuranosyl]-7H-pyrrolo[2,3-d]pyrimidin-4-amine]: the EC50 in experiment [1] (setting [2]) was found to be 1.47 nM; in experiment [1] (setting [3]), 40 nM; on PRMT5 it was 39 nM. Take `C[C@@]1(O)[C@@H]([C@H](O)c2ccc(F)c(Cl)c2)O[C@@H](n2ccc3c(N)ncnc32)[C@@H]1O` [Example 15, 7-[(5R)-5-C-(3-chloro-4-fluorophenyl)-3-C-methyl-beta-D-ribofuranosyl]-7H-pyrrolo[2,3-d]pyrimidin-4-amine]: the EC50 in experiment [1] (setting [2]) turned out to be 0.51 nM; in experiment [1] (setting [3]), 75 nM; on PRMT5, 65 nM. In the same order, the values of `C[C@@]1(O)[C@@H]([C@H](O)c2cccc3c2CNCC3)O[C@@H](n2ccc3c(N)ncnc32)[C@@H]1O` [Example 70, 7-[(5R)-3-C-methyl-5-C-(1,2,3,4-tetrahydroisoquinolin-8-yl)-beta-D-ribofuranosyl]-7H-pyrrolo[2,3-d]pyrimidin-4-amine] are 1.79 nM, 42 nM and 1190 nM. Consider `C=C(c1cccc2c1CNCC2)[C@H]1O[C@@H](n2ccc3c(C)ncnc32)[C@H](O)[C@]1(C)O` [Example 85, (2R,3S,4R,5R)-3-methyl-5-(4-methyl-7H-pyrrolo[2,3-d]pyrimidin-7-yl)-2-(1-(1,2,3,4-tetrahydroisoquinolin-8-yl)vinyl)tetrahydrofuran-3,4-diol], for which the values for the EC50 (in experiment [1] (setting [2]); in experiment [1] (setting [3]); at PRMT5) were 34 nM, 2660 nM and 9380 nM, respectively. With `C[C@@]1(O)[C@@H]([C@@H](O)c2cccc3c2CNCC3)O[C@@H](n2ccc3c(N)ncnc32)[C@@H]1O` [Example 71, 7-[(5S)-3-C-methyl-5-C-(1,2,3,4-tetrahydroisoquinolin-8-yl)-beta-D-ribofuranosyl]-7H-pyrrolo[2,3-d]pyrimidin-4-amine], the EC50 was 15.5 nM in experiment [1] (setting [2]), 1700 nM in experiment [1] (setting [3]) and more than 10000 nM on PRMT5. At PRMT5, `C[C@@]1(O)[C@@H]([C@@H](O)c2cc(F)cc(C(F)F)c2)O[C@@H](n2ccc3c(N)ncnc32)[C@@H]1O` [Example 5, (2R,3S,4R,5R)-5-(4-amino-7H-pyrrolo[2,3-d]pyrimidin-7-yl)-2-((S)-(3-(difluoromethyl)-5-fluorophenyl)(hydroxy)methyl)-3-methyltetrahydrofuran-3,4-diol] returned an EC50 of 5060 nM.

For the compound `Cc1ncnc2c1ccn2[C@@H]1O[C@H]([C@H](C)c2cccc3c2CNCC3)[C@@](C)(O)[C@H]1O` [Example 86, (2R,3S,4R,5R)-3-methyl-5-(4-methyl-7H-pyrrolo[2,3-d]pyrimidin-7-yl)-2-((R)-1-(1,2,3,4-tetrahydroisoquinolin-8-yl)ethyl)tetrahydrofuran-3,4-diol], the EC50 is 343 nM in experiment [1] (setting [2]), 33100 nM in experiment [1] (setting [3]) and more than 10000 nM on PRMT5. `C[C@@]1(O)[C@@H]([C@@H](O)c2cncc(C(F)F)c2)O[C@@H](n2ccc3c(N)ncnc32)[C@@H]1O` [Example 75, 7-{(5S)-5-C-[5-(difluoromethyl)pyridin-3-yl]-3-C-methyl-beta-D-ribofuranosyl}-7H-pyrrolo[2,3-d]pyrimidin-4-amine] yielded an EC50 on PRMT5 of more than 10000 nM. For `C[C@@]1(O)[C@@H]([C@H](O)c2cc(Cl)cc(C(F)(F)F)c2)O[C@@H](n2ccc3c(N)ncnc32)[C@@H]1O` [Example 60, 7-{(5R)-5-C-[3-chloro-5-(trifluoromethyl)phenyl]-3-C-methyl-beta-D-ribofuranosyl}-7H-pyrrolo[2,3-d]pyrimidin-4-amine], the EC50 on PRMT5 was found to be 403 nM. `C[C@]1(O)[C@@H](O)[C@H](n2ccc3c(N)ncnc32)O[C@@H]1[C@](C)(O)c1cccc2c1CNCC2` [Example 63, 7-[6-deoxy-3-C-methyl-5-C-(1,2,3,4-tetrahydroisoquinolin-8-yl)-beta-D-ribo-hexofuranosyl]-7H-pyrrolo[2,3-d]pyrimidin-4-amine]: the EC50 on PRMT5 was 182 nM. The same measure, in the same setting: the result for `COc1cccc([C@@H](O)[C@H]2O[C@@H](n3ccc4c(N)ncnc43)[C@H](O)[C@]2(C)O)c1` [Example 36, 7-[(5R)-5-C-(3-methoxyphenyl)-3-C-methyl-beta-D-ribofuranosyl]-7H-pyrrolo[2,3-d]pyrimidin-4-amine] reads 997 nM. Compound `C[C@@]1(O)[C@@H]([C@@H](O)c2ccc(F)c(F)c2)O[C@@H](n2ccc3c(N)ncnc32)[C@@H]1O` [Example 2, (2R,3S,4R,5R)-5-(4-amino-7H-pyrrolo[2,3-d]pyrimidin-7-yl)-2-((S)-(3,4-difluorophenyl)(hydroxy)methyl)-3-methyltetrahydrofuran-3,4-diol] gave an EC50 at PRMT5 of more than 10000 nM. Still for that read-out and setting: the result for `C[C@@]1(O)[C@@H]([C@@H](O)c2cccc(C(F)(F)F)c2)O[C@@H](n2ccc3c(N)ncnc32)[C@@H]1O` [Example 55, 7-{(5S)-3-C-methyl-5-C-[3-(trifluoromethyl)phenyl]-beta-D-ribofuranosyl}-7H-pyrrolo[2,3-d]pyrimidin-4-amine] reads more than 10000 nM.
